Laboratory results as given in ChEMBL document CHEMBL1201862, “PubChem BioAssay data set” (2004).
Activity calls are given as the source filed them.

Legend:
[1] = HepG2 cell cytotoxicity, dose response, cytotoxicity control, plate reader, dry powder samples (AID 1159569); type: functional, cell-based;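 further: inhibitor potency with signal falling toward the positive control level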
[2] = P. falciparum Dd2 growth inhibitors, dose response, SYBR Green, cherry-picked samples (AID 1159567); type: functional, cell-based
[3] = P. falciparum 3D7-ScDHODH growth inhibitors, dose response, SYBR Green, dry powder samples (AID 1159570); type: functional, cell-based;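 further: parasite growth measured after 72 hours of compound exposure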
[4] = P. falciparum ATP4 D1247Y mutant growth inhibitors, dose response, NITD609-resistant line, SYBR Green, dry powder (AID 1159571); type: functional, cell-based;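 further: parasites synchronized at ring stage by sorbitol before testing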
[5] = P. falciparum Dd2 growth inhibitors, dose response, SYBR Green, dry powder samples (AID 1159566); type: functional, cell-based;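 further: potency for growth inhibition with lower SYBR green DNA signal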
[6] = Counterscreen for activators of the function of SWI/SNF related, matrix associated, actin dependent regulator of chromatin, subfamily a, member 2 (SMARCA2, BRM): Luminescence-based cell-based high throughput dose response assay to identify non-selective compounds using the VP16 reporter assay.; type: functional
[7] = target: SWI/SNF-related matrix-associated actin-dependent regulator of chromatin subfamily A member 2 (Homo sapiens, UniProt P51531); assay: Luminescence-based cell-based high throughput dose response assay to identify activators of the function of SWI/SNF related, matrix associated, actin dependent regulator of chromatin, subfamily a, member 2 (SMARCA2, BRM).; type: functional
Sequence of SWI/SNF-related matrix-associated actin-dependent regulator of chromatin subfamily A member 2 (P51531 whole entry): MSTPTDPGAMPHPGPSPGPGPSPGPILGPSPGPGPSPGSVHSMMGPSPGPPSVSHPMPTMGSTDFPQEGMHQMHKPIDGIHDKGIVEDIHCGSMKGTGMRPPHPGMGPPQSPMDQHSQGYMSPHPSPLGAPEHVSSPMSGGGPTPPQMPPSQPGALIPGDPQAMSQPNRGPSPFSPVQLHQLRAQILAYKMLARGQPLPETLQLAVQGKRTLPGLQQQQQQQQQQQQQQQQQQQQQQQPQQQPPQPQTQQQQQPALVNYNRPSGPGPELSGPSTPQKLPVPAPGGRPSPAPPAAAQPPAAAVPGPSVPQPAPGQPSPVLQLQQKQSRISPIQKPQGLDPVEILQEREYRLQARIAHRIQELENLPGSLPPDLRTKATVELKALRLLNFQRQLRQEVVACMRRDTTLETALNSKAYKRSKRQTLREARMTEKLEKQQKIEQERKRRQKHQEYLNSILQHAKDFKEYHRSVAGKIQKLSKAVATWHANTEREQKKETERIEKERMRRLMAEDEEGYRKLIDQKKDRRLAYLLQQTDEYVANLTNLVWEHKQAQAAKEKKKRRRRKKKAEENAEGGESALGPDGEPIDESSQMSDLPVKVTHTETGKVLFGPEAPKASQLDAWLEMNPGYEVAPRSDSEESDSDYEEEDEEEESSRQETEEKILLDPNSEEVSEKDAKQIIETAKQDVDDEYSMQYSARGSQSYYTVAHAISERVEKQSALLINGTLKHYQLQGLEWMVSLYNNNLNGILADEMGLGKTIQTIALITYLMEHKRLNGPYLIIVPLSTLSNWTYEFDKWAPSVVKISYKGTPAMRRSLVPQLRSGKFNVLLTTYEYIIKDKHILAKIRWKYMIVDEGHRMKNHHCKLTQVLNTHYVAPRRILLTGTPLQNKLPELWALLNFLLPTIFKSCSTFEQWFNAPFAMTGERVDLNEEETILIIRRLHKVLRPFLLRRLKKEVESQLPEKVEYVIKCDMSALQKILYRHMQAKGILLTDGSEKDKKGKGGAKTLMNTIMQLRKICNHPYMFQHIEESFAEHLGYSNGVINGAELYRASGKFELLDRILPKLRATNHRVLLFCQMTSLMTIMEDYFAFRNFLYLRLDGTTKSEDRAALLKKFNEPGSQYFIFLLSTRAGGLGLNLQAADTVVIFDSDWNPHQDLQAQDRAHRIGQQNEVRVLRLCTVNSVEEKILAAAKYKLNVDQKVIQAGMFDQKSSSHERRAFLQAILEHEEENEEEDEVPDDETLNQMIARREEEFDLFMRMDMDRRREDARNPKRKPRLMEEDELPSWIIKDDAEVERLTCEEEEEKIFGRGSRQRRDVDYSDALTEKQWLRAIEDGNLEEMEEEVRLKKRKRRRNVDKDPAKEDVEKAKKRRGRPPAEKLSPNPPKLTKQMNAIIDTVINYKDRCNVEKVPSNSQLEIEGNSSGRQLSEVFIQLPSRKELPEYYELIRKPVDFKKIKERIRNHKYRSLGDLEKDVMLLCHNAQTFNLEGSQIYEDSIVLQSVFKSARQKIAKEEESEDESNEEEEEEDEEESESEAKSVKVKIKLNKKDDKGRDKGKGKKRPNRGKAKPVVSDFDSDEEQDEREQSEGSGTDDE

[8] = target: T1, Caspase-3 (Homo sapiens, UniProt P42574); type: functional;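 further: Dose-response selectivity test against caspase-3 for candidate inhibitors of sentrin-specific proteases (SENPs)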
T1 sequence (P42574 whole entry): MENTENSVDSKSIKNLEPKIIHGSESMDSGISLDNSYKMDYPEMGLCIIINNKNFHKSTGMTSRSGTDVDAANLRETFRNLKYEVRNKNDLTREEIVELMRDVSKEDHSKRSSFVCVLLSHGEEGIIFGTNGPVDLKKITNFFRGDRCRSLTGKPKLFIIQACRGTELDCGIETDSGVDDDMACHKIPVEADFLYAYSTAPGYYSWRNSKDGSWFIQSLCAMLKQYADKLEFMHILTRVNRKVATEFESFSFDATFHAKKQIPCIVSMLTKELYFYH

[9] = Luminescence Cell-Based Dose Retest to Confirm Inhibitors of Cancer Stem Cells. [Related pubchem assays (depositor defined):AID2717, AID2721]; type: functional; conditions: Homo sapiens
[10] = target: T2, Sentrin-specific protease 7 (Homo sapiens, UniProt Q9BQF6); type: functional;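 further: Luminescence-based dose-response confirmation of ultra-high-throughput screening hits, measuring inhibition of SENP7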
T2 sequence (Q9BQF6 whole entry): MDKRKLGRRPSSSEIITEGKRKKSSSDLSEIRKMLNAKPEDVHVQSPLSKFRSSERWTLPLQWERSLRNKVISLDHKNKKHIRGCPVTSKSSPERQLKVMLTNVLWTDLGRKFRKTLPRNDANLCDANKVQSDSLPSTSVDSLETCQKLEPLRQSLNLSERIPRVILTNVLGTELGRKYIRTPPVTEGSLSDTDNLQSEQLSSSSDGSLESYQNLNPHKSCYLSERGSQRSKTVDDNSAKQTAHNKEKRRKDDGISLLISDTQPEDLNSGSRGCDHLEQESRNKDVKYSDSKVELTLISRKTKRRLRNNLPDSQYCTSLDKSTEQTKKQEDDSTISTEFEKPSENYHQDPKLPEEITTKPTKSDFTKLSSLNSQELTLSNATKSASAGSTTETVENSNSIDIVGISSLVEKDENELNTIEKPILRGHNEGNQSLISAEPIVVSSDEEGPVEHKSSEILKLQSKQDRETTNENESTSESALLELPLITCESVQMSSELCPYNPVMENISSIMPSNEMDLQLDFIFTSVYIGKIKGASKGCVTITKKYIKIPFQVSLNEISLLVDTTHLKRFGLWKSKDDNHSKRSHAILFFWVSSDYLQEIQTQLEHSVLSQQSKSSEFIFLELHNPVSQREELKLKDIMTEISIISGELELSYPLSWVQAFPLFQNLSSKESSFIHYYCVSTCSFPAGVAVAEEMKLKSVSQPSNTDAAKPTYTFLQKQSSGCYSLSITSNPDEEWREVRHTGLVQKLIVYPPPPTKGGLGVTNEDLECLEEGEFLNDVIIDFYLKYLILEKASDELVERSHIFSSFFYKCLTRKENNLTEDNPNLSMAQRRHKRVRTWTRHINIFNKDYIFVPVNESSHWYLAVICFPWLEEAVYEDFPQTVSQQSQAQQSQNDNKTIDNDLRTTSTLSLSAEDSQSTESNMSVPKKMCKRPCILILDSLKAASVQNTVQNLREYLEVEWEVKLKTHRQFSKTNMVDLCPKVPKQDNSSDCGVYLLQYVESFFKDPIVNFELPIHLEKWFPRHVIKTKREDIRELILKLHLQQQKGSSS

[11] = tested on: INS1; assay: beta cell apoptosis inhibitors, cytokine rescue, dose response, luminescence, retest (AID 449756); type: functional, cell-based; conditions: Rattus norvegicus;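 further: cell death triggered by IL-1 beta plus TNF-alpha plus IFN-gamma mixture; protective hits raise ATP signal compared with cytokine alone wells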
[12] = target: T3, Sentrin-specific protease 6 (Homo sapiens, UniProt Q9GZR1); type: functional;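 further: Luminescence-based dose-response confirmatory assay of SENP6 inhibition, following up an ultra-high-throughput screen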
T3 sequence (Q9GZR1 whole entry): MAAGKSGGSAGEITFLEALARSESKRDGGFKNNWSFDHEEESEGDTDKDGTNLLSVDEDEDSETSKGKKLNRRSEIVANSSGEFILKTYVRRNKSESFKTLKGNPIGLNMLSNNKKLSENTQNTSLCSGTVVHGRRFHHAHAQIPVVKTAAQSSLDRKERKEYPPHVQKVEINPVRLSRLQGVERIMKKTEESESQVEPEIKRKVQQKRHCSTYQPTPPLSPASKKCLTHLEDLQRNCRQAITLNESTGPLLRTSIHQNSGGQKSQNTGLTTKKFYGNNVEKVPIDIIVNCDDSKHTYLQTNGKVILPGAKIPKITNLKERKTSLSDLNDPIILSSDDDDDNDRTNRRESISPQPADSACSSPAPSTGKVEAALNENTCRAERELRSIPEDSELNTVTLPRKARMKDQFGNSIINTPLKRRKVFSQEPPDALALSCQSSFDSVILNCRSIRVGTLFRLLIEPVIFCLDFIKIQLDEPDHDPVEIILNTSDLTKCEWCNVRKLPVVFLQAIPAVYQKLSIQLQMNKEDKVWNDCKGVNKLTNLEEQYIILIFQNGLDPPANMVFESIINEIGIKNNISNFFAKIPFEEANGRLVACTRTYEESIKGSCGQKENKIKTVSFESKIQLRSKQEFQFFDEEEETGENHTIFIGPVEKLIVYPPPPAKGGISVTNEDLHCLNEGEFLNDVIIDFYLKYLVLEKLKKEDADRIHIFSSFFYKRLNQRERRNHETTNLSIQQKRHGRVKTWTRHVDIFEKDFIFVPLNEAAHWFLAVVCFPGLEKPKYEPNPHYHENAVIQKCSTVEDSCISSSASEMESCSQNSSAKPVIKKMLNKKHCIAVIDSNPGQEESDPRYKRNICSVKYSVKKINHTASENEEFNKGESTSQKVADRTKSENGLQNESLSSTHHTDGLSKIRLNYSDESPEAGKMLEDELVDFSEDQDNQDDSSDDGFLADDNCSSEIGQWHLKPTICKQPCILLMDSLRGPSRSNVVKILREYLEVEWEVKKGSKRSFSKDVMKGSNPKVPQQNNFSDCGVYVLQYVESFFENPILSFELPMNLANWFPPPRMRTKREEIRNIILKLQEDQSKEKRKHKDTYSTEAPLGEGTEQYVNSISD

[13] = target: T4, Sentrin-specific protease 8 (Homo sapiens, UniProt Q96LD8); type: functional;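 further: luminescence read-out of SENP8 inhibition, dose-response confirmation following an ultra-high-throughput screen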
T4 sequence (Q96LD8 whole entry): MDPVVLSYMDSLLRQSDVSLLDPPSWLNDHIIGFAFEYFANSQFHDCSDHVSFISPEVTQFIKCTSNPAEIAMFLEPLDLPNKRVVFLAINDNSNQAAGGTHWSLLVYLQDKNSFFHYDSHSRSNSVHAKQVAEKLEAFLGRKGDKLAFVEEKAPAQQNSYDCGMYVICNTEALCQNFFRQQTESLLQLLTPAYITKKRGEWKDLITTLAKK

[14] = target: Paired box protein Pax-8 (Homo sapiens, UniProt Q06710); assay: inhibitors of PAX8-driven TPO luciferase reporter, dose response, RMG-I cells, cherry-pick (AID 687027); type: functional, cell-based;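 further: luciferase reporter driven by Pax8 target thyroperoxidase promoter measured by SteadyGlo luminescence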
Sequence of Paired box protein Pax-8 (Q06710 whole entry, the tested form may be a part): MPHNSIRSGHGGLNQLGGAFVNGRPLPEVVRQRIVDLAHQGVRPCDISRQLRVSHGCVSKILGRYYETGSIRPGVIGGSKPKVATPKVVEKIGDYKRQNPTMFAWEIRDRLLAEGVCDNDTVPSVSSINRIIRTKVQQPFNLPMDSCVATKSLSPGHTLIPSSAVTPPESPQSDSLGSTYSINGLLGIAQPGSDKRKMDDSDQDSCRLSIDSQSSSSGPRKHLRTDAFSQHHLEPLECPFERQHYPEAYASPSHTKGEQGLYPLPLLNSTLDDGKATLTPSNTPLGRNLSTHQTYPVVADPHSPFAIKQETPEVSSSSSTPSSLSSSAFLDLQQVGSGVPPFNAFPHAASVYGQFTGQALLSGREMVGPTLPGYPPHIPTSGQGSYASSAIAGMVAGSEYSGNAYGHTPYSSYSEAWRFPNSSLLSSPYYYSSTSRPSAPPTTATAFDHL

[15] = inhibitors of clade B AD8 Env fusion, dose response, cell-based, cherry-pick (AID 652062); type: functional;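 further: luciferase signal from cell-cell fusion driven by HIV-1 clade B AD8 Env; potency is for inhibitors of fusion seen as a drop in luminescence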
[16] = ZM109 Env clade C HIV-1 fusion inhibitors, dose response, HeLa effector, CEM target cells, luciferase, cherry-pick (AID 652058); type: functional, cell-based
[17] = inhibitors of HIV Env-driven cell fusion, dose response, cherry-pick (AID 652057); type: functional, cell-based
[18] = intracellular Trypanosoma cruzi inhibitors in host cells – cell-based, plate reader, cherry-pick samples, set 3, dose response (AID 651818); type: functional;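 further: compounds incubated with infected cells for about four days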
[19] = target: Nonstructural protein 1 (Influenza A virus, UniProt Q194T2); type: functional, Influenza A virus (A/California/07/2009(H1N1))
Sequence of Nonstructural protein 1 (Q194T2 whole entry): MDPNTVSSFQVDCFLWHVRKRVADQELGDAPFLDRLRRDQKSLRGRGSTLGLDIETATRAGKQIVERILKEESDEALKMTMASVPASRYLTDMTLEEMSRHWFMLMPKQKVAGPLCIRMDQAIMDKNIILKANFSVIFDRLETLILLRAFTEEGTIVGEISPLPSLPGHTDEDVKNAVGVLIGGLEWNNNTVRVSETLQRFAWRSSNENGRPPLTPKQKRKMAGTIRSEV

[20] = inhibitors of PGC1a acetylation in cells, dose response, cell-based, cherry-picked samples (AID 720514); type: functional;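 further: potency may reflect raised or lowered acetylation signal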
[21] = A cytotoxicity screen of small molecule inhibitors of the PhoP region in Salmonella typhi identified in the primary screen. [Related pubchem assays: 1850, 1864, 1985 ]; type: functional

Structure (SMILES): CC(C)(C)[S@@+]([O-])N1Cc2cc(C(=O)NCCN3CCCCC3)nc(-c3cccc(-c4ccc(C#N)cc4)c3)c2[C@H]1CCO
- AC50 [1]: 63.2 µM (active)
- AC50 [2]: 2.79 µM (active)
- AC50 [3]: 3.54 µM (active)
- AC50 [4]: 2.9 µM (active)
- AC50 [5]: 2.37 µM (active)

Structure (SMILES): COCn1c(COc2ccccc2)nc2ccccc21
- EC50 [6]: > 91.2 µM (inactive)
- EC50 [7]: > 91.2 µM (inactive)

Structure (SMILES): COc1cc(Cl)c(NC2=CC(=O)C(=O)c3ccccc32)c(OC)c1
- IC50 [8]: 28.8 µM (active)
- AC50 [9]: 1.15 µM (active)
- IC50 [10]: 15.6 µM (active)
- AC50 [11]: 3.33 µM (active)
- IC50 [12]: 9.11 µM (active)
- IC50 [13]: 14.5 µM (active)
- AC50 [14]: 4.49 µM (active)

Structure (SMILES): C=C1C(=O)OC2C1CCC(C)C1C=CC(=O)C12C (centres undefined)
- EC50 [6]: > 91.2 µM (inactive)
- EC50 [7]: > 91.2 µM (inactive)

Structure (SMILES): COc1ccc(S(=O)(=O)N(C)C[C@@H]2Oc3cc(-c4ccccc4OC)ccc3S(=O)(=O)N([C@H](C)CO)C[C@H]2C)cc1
- AC50 [1]: > 100 µM (inactive)
- AC50 [2]: 1.12 µM (active)
- AC50 [3]: 0.894 µM (active)
- AC50 [4]: 0.766 µM (active)
- AC50 [5]: 0.653 µM (active)

Structure (SMILES): COc1ccc(CNC(=O)N(C)C[C@@H]2OCc3ccccc3-c3c(n(C)c4ccccc34)C(=O)N([C@H](C)CO)C[C@@H]2C)cc1
- AC50 [15]: < 0.235 µM (active)
- AC50 [16]: < 0.235 µM (active)
- AC50 [17]: < 0.235 µM (active)

Structure (SMILES): C[C@@H]1CN([C@H](C)CO)C(=O)c2cccc(NC(=O)Nc3cccc4ccccc34)c2O[C@@H]1CN(C)Cc1ccc(C(F)(F)F)cc1
- AC50 [18]: 6.48 µM (active)

Structure (SMILES): C[C@@H]1CN([C@H](C)CO)C(=O)Cc2cc(NC(=O)Nc3ccc4c(c3)OCO4)ccc2O[C@@H]1CN(C)Cc1ccc(C(=O)Nc2ccccc2N)cc1
- AC50 [18]: 2.04 µM (active)

Structure (SMILES): COc1ccc(S(=O)(=O)Nc2ccc3c(c2)C(=O)N([C@H](C)CO)C[C@H](C)[C@@H](CN(C)Cc2ccc(Cl)c(Cl)c2)OCCCC[C@@H](C)O3)cc1
- AC50 [18]: 2.64 µM (active)
- AC50 [14]: 10.2 µM (active)

Structure (SMILES): Cc1[nH]n(-c2ccccc2)c(=O)c1N=Nc1ccc(F)cc1
- IC50 [19]: 84.7 µM (active)

Structure (SMILES): C/C=C/c1ccc2c(c1)[C@H]1[C@H](CCN1C(=O)c1cccc(F)c1)[C@H](CO)N2
- AC50 [1]: > 100 µM (inactive)
- AC50 [2]: 1.54 µM (active)
- AC50 [3]: 1.46 µM (active)
- AC50 [4]: 1.64 µM (active)
- AC50 [5]: 1.05 µM (active)

Structure (SMILES): C[C@H]1CN([C@@H](C)CO)C(=O)Cc2cc(NC(=O)Nc3ccc(C(F)(F)F)cc3)ccc2O[C@@H]1CN(C)CC1CCCCC1
- AC50 [18]: 3.54 µM (active)

Structure (SMILES): COc1ccc(-c2cnc3c(c2)C(=O)N([C@H](C)CO)C[C@@H](C)[C@@H](CN(C)C(=O)Nc2c(C)noc2C)O3)cc1
- AC50 [20]: 12.2 µM (active)

Structure (SMILES): CCCCNc1c([N+](=O)[O-])ccc2c1=NC1(CCCCC1)[N+]=2[O-]
- IC50 [19]: 43.8 µM (active)

Structure (SMILES): C[C@H](CO)N1C[C@H](C)[C@@H](CN(C)Cc2ccc(Cl)c(Cl)c2)Oc2c(NC(=O)Nc3cccc4ccccc34)cccc2C1=O
- AC50 [18]: 9.77 µM (active)

Structure (SMILES): CC1CCC[C@H](O)CCCCCc2cc(O)cc(O)c2C(=O)O1 (some centres undefined)
- AC50 [20]: 35.9 µM (active)
- EC50 [21]: > 50 µM (active)

Structure (SMILES): OC[C@@H]1CC[C@@H]2O[C@H](CCc3ccc(-c4ccccc4)cc3)[C@H](n3cc(-c4ccccc4)nn3)C[C@@H]2O1
- AC50 [1]: > 100 µM (inactive)
- AC50 [2]: 1.34 µM (active)
- AC50 [3]: 1.38 µM (active)
- AC50 [4]: 0.885 µM (active)
- AC50 [5]: 0.555 µM (active)

Structure (SMILES): C[C@@H]1CN([C@@H](C)CO)S(=O)(=O)c2ccc(/C=C/c3ccccc3)cc2O[C@H]1CN(C)Cc1cccnc1
- AC50 [1]: 56.2 µM (active)
- AC50 [2]: 1.93 µM (active)
- AC50 [3]: 1.6 µM (active)
- AC50 [4]: 2.15 µM (active)
- AC50 [5]: 1.63 µM (active)

Structure (SMILES): COc1ccccc1CNC(=O)COc1ccccc1C(=O)c1cnn(-c2ccccc2)c1
- IC50 [8]: 21.9 µM (active)
- IC50 [10]: 11.4 µM (active)
- IC50 [12]: 26.1 µM (active)
- IC50 [13]: 24.3 µM (active)
